Experimental data reported in PubChem BioAssay (NCI).
“And” between values parts separate entries of the source, which are not always exact repeats. Equal entries are not always repeated.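 Grown in 96-well plates, cells were treated for 48 hours with each compound at five concentrations. Insufficient inhibition: endpoint recorded as highest concentration tested. Abbreviation: GI50, concentration required for 50% inhibition of growth. TGI is the concentration that stops growth completely.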

How the values were obtained:
Test in all cases: DTP human tumour cell line panel, 48 h
SNB-19 CNS = system: SNB-19 CNS
SR leukemia = system: SR leukemia
SK-MEL-28 melanoma = system: SK-MEL-28 melanoma
HOP-62 NSCLC = system: HOP-62 NSCLC
OVCAR-8 ovarian = system: OVCAR-8 ovarian
NCI-H522 lung = system: NCI-H522 lung
MOLT-4 leukemia = system: MOLT-4 leukemia
A549 NSCLC = system: A549 NSCLC
SNB-75 CNS = system: SNB-75 CNS
NCI-H23 lung = system: NCI-H23 lung

| SMILES | TGI (SNB-19 CNS) [µM] | TGI (SR leukemia) | TGI (SK-MEL-28 melanoma) | TGI (HOP-62 NSCLC) | TGI (OVCAR-8 ovarian) [µM] | TGI (NCI-H522 lung) | TGI (MOLT-4 leukemia) | TGI (A549 NSCLC) | TGI (SNB-75 CNS) | TGI (NCI-H23 lung) | GI50 (SNB-19 CNS) | GI50 (SR leukemia) | GI50 (SK-MEL-28 melanoma) | GI50 (HOP-62 NSCLC) | GI50 (OVCAR-8 ovarian) | GI50 (NCI-H522 lung) | GI50 (MOLT-4 leukemia) | GI50 (A549 NSCLC) | GI50 (SNB-75 CNS) | GI50 (NCI-H23 lung) |
| --- | --- | --- | --- | --- | --- | --- | --- | --- | --- | --- | --- | --- | --- | --- | --- | --- | --- | --- | --- | --- |
| CC(C)(C)C(=O)O[C@@H]1COC2C(O)COC21 (some centres undefined) | > 100 | > 100 µM | > 100 µM | > 100 µM | > 100 | > 100 µM | 49 µM | > 100 µM | > 100 µM | > 100 µM | – | – | – | – | – | – | – | – | – | – |
| CS(=O)(=O)CCNCc1ccc(-c2ccc3ncnc(Nc4ccc(OCc5ccccc5)c(Cl)c4)c3c2)o1 | > 25 | 23.9 µM | 7.49 µM | > 20.3 µM | > 25 | 6.79 µM | > 25 µM | > 25 µM | > 25 µM | > 25 µM | 10.4 µM | 6.91 µM | 3.85 µM | 6.83 µM | 8.1 µM | 2.2 µM | 6.05 µM | 7.18 µM | 4.94 µM | 8.98 µM |
| O=C(O)c1ccc2c(c1)nc(Nc1cccc(Cl)c1)c1ccncc12 | > 100 | 6.3 µM and 9.2 µM | 21.9 µM and > 10 µM | 25.5 µM and > 10 µM | > 75.4 | 6.42 µM and 4.51 µM | 7.4 µM and > 10 µM | 27.4 µM and > 10 µM | 6.33 µM and 7.53 µM | 8.29 µM and > 10 µM | 3.04 µM and 3.46 µM | 2.04 µM and 2.63 µM | 3.12 µM and 3.2 µM | 3.3 µM and 3.38 µM | 4.1 µM and 3.3 µM | 1.98 µM and 1.39 µM | 3.07 µM and 4.6 µM | 7.23 µM and 6.64 µM | 1.44 µM and 1.67 µM | 2.37 µM and 2.98 µM |
| CN(C[C@@H]1COCCO1)S(=O)(=O)Nc1ccc2ccc3ncc(-c4cnn(C)c4)cc3c(=O)c2c1 | > 100 | > 100 µM | > 100 µM | > 100 µM | > 100 | > 31 µM | > 91.3 µM | > 100 µM | > 27.4 µM | > 100 µM | 12.5 µM | 3.05 µM | > 66.8 µM | 10.9 µM | 5.04 µM | 3.71 µM | 4.08 µM | 6.64 µM | 1.6 µM | 1.77 µM |
| CCCCCC/C=C\CCCCCCCCCC1=CC(=O)C=C(OC)C1=O | 20.1 | 20.2 µM | 25.7 µM | 14.8 µM | 12.5 | 4.58 µM | > 100 µM | 16.3 µM | 8.07 µM | 12 µM | – | – | – | – | – | – | – | – | – | – |
| CC(=O)[O][Hg][c]1ccccc1 | 3.05 | 0.537 µM | 1.47 µM | 3.11 µM | 3.96 | 0.292 µM | 0.551 µM | – | 2.2 µM | 3.46 µM | 1.46 µM | 0.143 µM | 0.383 µM | 1.62 µM | 0.921 µM | 0.138 µM | 0.19 µM | – | 0.771 µM | 0.682 µM |
| Cn1c(=S)c2[nH]c(SCCN3CCCC3)nc2n(C)c1=O | > 100 | > 100 µM | > 100 µM | > 100 µM | > 100 | > 100 µM | > 100 µM | > 100 µM | > 100 µM | > 100 µM | – | – | – | – | – | – | – | – | – | – |
| O=C(OCc1ccc2c(Cl)cc(Cl)c(O)c2n1)c1cc2ccccc2[nH]1 | 2.99 | 1.92 µM | 1.62 µM | 3.81 µM | 3.05 | 1.15 µM | 2.35 µM | 4.01 µM | 1.97 µM | 3.2 µM | 1.59 µM | 0.324 µM | 0.532 µM | 1.63 µM | 0.818 µM | 0.361 µM | 0.407 µM | 1.75 µM | 0.583 µM | 1.49 µM |
| COc1ccc2c(c1)CCC1=CC3(CCC12C)SCCS3 (centres undefined) | > 10 | > 10 µM | > 10 µM | > 10 µM | > 10 | > 10 µM | > 10 µM | > 10 µM | > 10 µM | > 10 µM | – | – | – | – | – | – | – | – | – | – |
| COc1ccc(/C(=N/NC(N)=O)C(c2ccc(OC)cc2)C2C(=O)Oc3ccccc32)cc1 (centres undefined) | > 100 | > 100 µM | > 100 µM | > 100 µM | > 100 | > 100 µM | > 100 µM | > 100 µM | > 100 µM | > 100 µM | – | – | – | – | – | – | – | – | – | – |
| COc1ccc(-c2cc(=O)c3c(O)cc(C)cc3o2)cc1OC | > 100 | > 100 µM | > 100 µM | > 100 µM | – | > 100 µM | > 100 µM | > 100 µM | > 100 µM | > 100 µM | – | – | – | – | – | – | – | – | – | – |
| C#Cc1cccc(Nc2nc3ccc([N+](=O)[O-])cc3nc2Nc2cccc(C#C)c2)c1 | 1.84 | 1.3 µM | 1.17 µM | 0.476 µM | 1.46 | 0.609 µM | 1.02 µM | 1.12 µM | 0.653 µM | 0.911 µM | 0.361 µM | 0.318 µM | 0.354 µM | 0.188 µM | 0.303 µM | 0.209 µM | 0.247 µM | 0.212 µM | 0.175 µM | 0.265 µM |
| COc1ccc(-c2c(-c3cc(OC)c4c(c3)OCO4)noc2N)cc1 | > 100 | > 36.6 µM | 33.4 µM | 37.1 µM | 22.8 | 0.0239 µM | 17.5 µM | > 100 µM | 58.5 µM | 20.9 µM | 0.0708 µM | < 0.0104 µM | 0.872 µM | 0.0345 µM | 0.0654 µM | – | 0.0723 µM | 0.0663 µM | 0.0339 µM | 0.0329 µM |
| O=C(O)Cn1c(=O)[nH]c(=O)c2c1ncn2Cc1ccccc1 | > 100 | > 100 µM | > 100 µM | > 100 µM | > 100 | > 100 µM | > 100 µM | > 100 µM | > 100 µM | > 100 µM | – | – | – | – | – | – | – | – | – | – |
| Cc1ccc(S(=O)(=O)Cc2nc(-c3ccc(C(=O)NCc4cccnc4)cc3)oc2C)cc1 | > 100 | > 100 µM | > 100 µM | > 88.8 µM | > 100 | 27.7 µM | > 100 µM | > 100 µM | 47.9 µM | – | 0.0869 µM | 0.514 µM | 15.5 µM | 15.4 µM | < 0.01 µM | 1.33 µM | 0.595 µM | > 21.5 µM | 4.73 µM | – |
| Nc1c(C(=O)Nc2ccccc2F)sc2nc3c(cc12)C(=O)CCC3 | > 100 | > 100 µM | > 100 µM | > 100 µM | > 100 | 3.9 µM | > 100 µM | > 100 µM | > 57.8 µM | > 100 µM | 2.6 µM | 1.68 µM | 6.33 µM | 4.12 µM | 13.8 µM | 0.476 µM | > 100 µM | 0.898 µM | 1.88 µM | 2.04 µM |
